The nature of data set [1]: Metabolic stability in human kidney S9. It is filed as in vitro ADME. The protocol: The metabolic stability of the compounds in human kidney was evaluated to determine whether the drugs would be degraded by metabolic enzymes in the kidney to affect the efficacies and pharmacokinetics. 1. Relevant solutions were formulated. 2. a) With cofactors (NADPH & UDPGA): NADPH and UDPGA were added during the incubation. […] H2O was added into the culture solution. The final concentration of KS9 Fractions was 1 mg/mL. The mixture was pre-heated at 37° C. for 10 min. […] In this study, 7-hydroxy-coumarin and Raloxifene were used as the positive control. The final concentration of the positive control compounds was 0.2 μM, and the final concentration of the test compound was 1 μM. The culture solution was incubated in water bath at 37° C. 4. At 0.5, 5, 15, 30 and 60 min, volume aliquots were taken from the reaction solution and the reaction was stopped by adding acetonitrile. The samples were centrifuged for 30 min. The supernatant was taken and mixed with ultrapure water for subsequent LC-MS/MS analysis. 5. Data analysis: All calculation was conducted using Microsoft Excel. Peak areas were determined and slope values were calculated based on the extracted ion chromatograms.

Data set [2] can be described thus: Pharmacokinetic properties in Cynomolgus macaques. The conditions noted are these: cynomolgus monkey, in vivo, male cynomolgus macaques, plasma; for AUC(0-t): read-out: AUC0-240 h; for AUC(0-inf): read-out: AUCINF; for Cmax: read-out: Cmax; for half-life: read-out: T1/2 (converted); for Tmax: read-out: Tmax. The protocol:
To test the pharmacokinetic profiles of the compounds in Cynomolgus macaques.
Non-juvenile male cynomolgus macaques were used for experiment, 3 cynomolgus macaques for each compound. Whole blood was collected at time points of 1 h, 2 h, 4 h, 8 h, 16 h, 24 h, 48 h, 72 h, 120 h, 168 h and 240 h after administration, to prepare plasma. The drug concentration was analyzed by LC-MS/MS method, and the pharmacokinetic parameters were calculated using Phoenix WinNonlin software.

The mark [3] stands for this setting: Human kidney S9 1 mg/mL, +Cofactors (NADPH & UDPGA), 37° C., read-out: in vitro CLint.
[4] abbreviates: Human kidney S9 1 mg/mL, +Cofactors (NADPH & UDPGA), 37° C., read-out: in vitro t1/2.

Like-named read-outs stand apart in the source and are kept apart here. Numbered stars: 1 amine (or outer) side, 2 acyl side, 3 side chain; on linkers, the order of the positions; unused ones are H or OH. Bridge positions count the residues as written; N and C are the ends. Square brackets hold non-standard residues; d marks the D form. Peptide text beside a SMILES is read from it. X2 = O=C(O)CCCCCCCCCCCCCCCCCCC(=O)N[C@@H](CCC(=O)NCCOCCOCC(=O)N[C@@H](CCC(=O)[*:2])C(=O)[*:1])C(=O)O; αMeL = CC(C)C[C@](C)(N)C(=O)O; Aib = CC(C)(N)C(=O)O

In data set [1] (human, s9), `O=c1ccc2ccc(O)cc2o1` [7-Hydroxy-courmarin, 7-hydroxy-coumarin, reference compound] displayed a half-life at 0.2 μM of 1.69 h and a microsomal CLint at 0.2 μM of 6.84 µL/min/mg.
One may read the Cmax as the highest concentration seen after dosing. Usually Tmax stands for the time at which the peak concentration occurs. In the case of `CC[C@H](C)[C@H](NC(=O)[C@H](Cc1ccccc1)NC(=O)[C@@H]1CCCCNC(=O)CN(C(=O)[C@@H](N)CCCCNC(=O)[C@@H](N)CCCCNC(=O)CC[C@H](NC(=O)CCCCCCCCCCCCCCCCCCC(=O)O)C(=O)O)CC(=O)NCCCC[C@H](NC(=O)[C@H](CCCCN)NC(=O)[C@H](CC(=O)O)NC(=O)[C@H](CC(C)C)NC(=O)[C@](C)(CC(C)C)NC(=O)[C@@H](NC(=O)[C@H](CO)NC(=O)[C@H](Cc2ccc(O)cc2)NC(=O)[C@H](CC(=O)O)NC(=O)[C@H](CO)NC(=O)[C@@H](NC(=O)[C@H](Cc2ccccc2)NC(=O)[C@@H](NC(=O)CNC(=O)[C@H](CCC(N)=O)NC(=O)C(C)(C)NC(=O)[C@@H](N)Cc2ccc(O)cc2)[C@@H](C)O)[C@@H](C)O)[C@@H](C)CC)C(=O)N[C@@H](C)C(=O)N[C@@H](CCC(N)=O)C(=O)NC(C)(C)C(=O)N1)C(=O)N[C@@H](CCC(=O)O)C(=O)N[C@@H](Cc1ccc(O)cc1)C(=O)N[C@@H](CC(C)C)C(=O)N[C@@H](CC(C)C)C(=O)N[C@@H](CCC(=O)O)C(=O)NCC(=O)NCC(=O)N1CCC[C@H]1C(=O)N[C@@H](CO)C(=O)N[C@@H](CO)C(=O)NCC(=O)N[C@@H](C)C(=O)N1CCC[C@H]1C(=O)N1CCC[C@H]1C(=O)N1CCC[C@H]1C(=O)N[C@@H](CO)C(N)=O` [Example 7, YAibQGT FRSDY SIα- MeLLD K^1KAQAib ^1KFIEY LLEGG PSSGA PPPS-NH2 (SEQ ID NO: 1)], in data set [2], the AUC(0-t) came out at 3.32 µM·h, the AUC(0-inf) was 3.96 µM·h, the peak concentration (Cmax) was determined as 24.3 nM and the half-life is 84.1 h. The Tmax in data set [2] was 29.3 h. Moreover, the microsomal CLint in data set [1] (setting [3]) is under 3.75 µL/min/mg. Also, the half-life in data set [1] (setting [4]) was over 3.08 h.
Consider `CC[C@H](C)[C@H](NC(=O)[C@H](Cc1ccccc1)NC(=O)[C@@H]1CCCCNC(=O)CC[C@H](NC(=O)COCCOCCNC(=O)CC[C@H](NC(=O)CCCCCCCCCCCCCCCCCCC(=O)O)C(=O)O)C(=O)NCCCC[C@H](NC(=O)[C@H](CCCCN)NC(=O)[C@H](CC(=O)O)NC(=O)[C@H](CC(C)C)NC(=O)[C@](C)(CC(C)C)NC(=O)[C@@H](NC(=O)[C@H](CO)NC(=O)[C@H](Cc2ccc(O)cc2)NC(=O)[C@H](CC(=O)O)NC(=O)[C@H](CO)NC(=O)[C@@H](NC(=O)[C@H](Cc2ccccc2)NC(=O)[C@@H](NC(=O)CNC(=O)[C@H](CCC(N)=O)NC(=O)C(C)(C)NC(=O)[C@@H](N)Cc2ccc(O)cc2)[C@@H](C)O)[C@@H](C)O)[C@@H](C)CC)C(=O)N[C@@H](C)C(=O)N[C@@H](CCC(N)=O)C(=O)NC(C)(C)C(=O)N1)C(=O)N[C@@H](CCC(=O)O)C(=O)N[C@@H](Cc1ccc(O)cc1)C(=O)N[C@@H](CC(C)C)C(=O)N[C@@H](CC(C)C)C(=O)N[C@@H](CCC(=O)O)C(=O)NCC(=O)NCC(=O)N1CCC[C@H]1C(=O)N[C@@H](CO)C(=O)N[C@@H](CO)C(=O)NCC(=O)N[C@@H](C)C(=O)N1CCC[C@H]1C(=O)N1CCC[C@H]1C(=O)N1CCC[C@H]1C(=O)N[C@@H](CO)C(N)=O` [Example 8, YAibQGT FTSDY SIα- MeLLD K^1KAQAib ^1KFIEY LLEGG PSSGA PPPS-NH2 (SEQ ID NO: 1)] (H-Y[Aib]QGTFTSDYSI[αMeL]LDKKAQ[Aib]KFIEYLLEGGPSSGAPPPS-NH2; linker 17-21 via X2 (inferred); N-terminus assumed), for which, in data set [1] (human, s9), the half-life is over 3.08 h and the microsomal CLint was under 3.75 µL/min/mg.
As for `CC[C@H](C)[C@H](NC(=O)[C@H](Cc1ccccc1)NC(=O)[C@@H]1CCCCNC(=O)CN(C(=O)COCCOCCNC(=O)CC[C@H](NC(=O)CCCCCCCCCCCCCCCCCCC(=O)O)C(=O)O)CC(=O)NCCCC[C@H](NC(=O)[C@H](CCCCN)NC(=O)[C@H](CC(=O)O)NC(=O)[C@H](CC(C)C)NC(=O)[C@](C)(CC(C)C)NC(=O)[C@@H](NC(=O)[C@H](CO)NC(=O)[C@H](Cc2ccc(O)cc2)NC(=O)[C@H](CC(=O)O)NC(=O)[C@H](CO)NC(=O)[C@@H](NC(=O)[C@H](Cc2ccccc2)NC(=O)[C@@H](NC(=O)CNC(=O)[C@H](CCC(N)=O)NC(=O)C(C)(C)NC(=O)[C@@H](N)Cc2ccc(O)cc2)[C@@H](C)O)[C@@H](C)O)[C@@H](C)CC)C(=O)N[C@@H](C)C(=O)N[C@@H](CCC(N)=O)C(=O)NC(C)(C)C(=O)N1)C(=O)N[C@@H](CCC(=O)O)C(=O)N[C@@H](Cc1ccccc1)C(=O)N[C@@H](CC(C)C)C(=O)N[C@@H](CC(C)C)C(=O)N[C@@H](CCC(=O)O)C(=O)NCC(=O)NCC(=O)N1CCC[C@H]1C(=O)N[C@@H](CO)C(=O)N[C@@H](CO)C(=O)NCC(=O)N[C@@H](C)C(=O)N1CCC[C@H]1C(=O)N1CCC[C@H]1C(=O)N1CCC[C@H]1C(=O)N[C@@H](CO)C(N)=O` [Example 9, YAibQGT FTSDY SIα- MeLLD K^1KAQAib ^1KFIEF LLEGG PSSGA PPPS-NH2 (SEQ ID NO: 15)], in data set [2], the AUC(0-t) is 3.23 µM·h, the AUC(0-inf) is 3.64 µM·h, the Cmax stood at 30.1 nM and the half-life was 77.4 h. The time of peak concentration (Tmax) in data set [2] is 29.3 h.
In data set [1] (human, s9), `CC[C@H](C)[C@@H]1NC(=O)[C@H](Cc2ccccc2)NC(=O)[C@H](C)NC(=O)C(C)(C)NC(=O)[C@H](CCC(N)=O)NC(=O)[C@H](C)NC(=O)[C@@H](NC(=O)[C@H](CCCCN)NC(=O)[C@H](CC(=O)O)NC(=O)[C@H](CC(C)C)NC(=O)[C@](C)(CC(C)C)NC(=O)[C@@H](NC(=O)[C@H](CO)NC(=O)[C@H](Cc2ccc(O)cc2)NC(=O)[C@H](CC(=O)O)NC(=O)[C@H](CO)NC(=O)[C@@H](NC(=O)[C@H](Cc2ccccc2)NC(=O)[C@@H](NC(=O)CNC(=O)[C@H](CCC(N)=O)NC(=O)C(C)(C)NC(=O)[C@@H](N)Cc2ccc(O)cc2)[C@@H](C)O)[C@@H](C)O)[C@@H](C)CC)CCCCNC(=O)CN(C(=O)COCCOCCNC(=O)COCCOCCNC(=O)CC[C@H](NC(=O)CCCCCCCCCCCCCCCCCCC(=O)O)C(=O)O)CC(=O)NCCCC[C@@H](C(=O)N[C@@H](Cc2ccc(O)cc2)C(=O)N[C@@H](CC(C)C)C(=O)N[C@@H](CC(C)C)C(=O)N[C@@H](CCC(=O)O)C(=O)NCC(=O)NCC(=O)N2CCC[C@H]2C(=O)N[C@@H](CO)C(=O)N[C@@H](CO)C(=O)NCC(=O)N[C@@H](C)C(=O)N2CCC[C@H]2C(=O)N2CCC[C@H]2C(=O)N2CCC[C@H]2C(=O)N[C@@H](CO)C(N)=O)NC1=O` [Example 11, YAibQGT FTSDY SIα- MeLLD K^1KAQAib AFI^1KY LLEGG PSSGA PPPS-NH2 (SEQ ID NO: 17)] yielded a half-life at 1 μM of over 3.08 h and a microsomal CLint at 1 μM of under 3.75 µL/min/mg.
`CC[C@H](C)[C@H](NC(=O)[C@H](Cc1ccccc1)NC(=O)[C@H](C)NC(=O)C(C)(C)NC(=O)[C@H](CCC(N)=O)NC(=O)[C@H](C)NC(=O)[C@@H]1CCCCNC(=O)CN(C(=O)COCCOCCNC(=O)CC[C@H](NC(=O)CCCCCCCCCCCCCCCCCCC(=O)O)C(=O)O)CC(=O)NCCCC[C@H](NC(=O)[C@](C)(CC(C)C)NC(=O)[C@@H](NC(=O)[C@H](CO)NC(=O)[C@H](Cc2ccc(O)cc2)NC(=O)[C@H](CC(=O)O)NC(=O)[C@H](CO)NC(=O)[C@@H](NC(=O)[C@H](Cc2ccccc2)NC(=O)[C@@H](NC(=O)CNC(=O)[C@H](CCC(N)=O)NC(=O)C(C)(C)NC(=O)[C@@H](N)Cc2ccc(O)cc2)[C@@H](C)O)[C@@H](C)O)[C@@H](C)CC)C(=O)N[C@@H](CC(=O)O)C(=O)N[C@@H](CCCCN)C(=O)N1)C(=O)N[C@@H](CCC(=O)O)C(=O)N[C@@H](Cc1ccc(O)cc1)C(=O)N[C@@H](CC(C)C)C(=O)N[C@@H](CC(C)C)C(=O)N[C@@H](CCC(=O)O)C(=O)NCC(=O)NCC(=O)N1CCC[C@H]1C(=O)N[C@@H](CO)C(=O)N[C@@H](CO)C(=O)NCC(=O)N[C@@H](C)C(=O)N1CCC[C@H]1C(=O)N1CCC[C@H]1C(=O)N1CCC[C@H]1C(=O)N[C@@H](CO)C(N)=O` [Example 21, YAibQGT FTSDY SIα- MeL^1KD K^1KAQAib AFIEY LLEGG PSSGA PPPS-NH2 (SEQ ID NO: 24)]: in data set [2], the AUC(0-t) came out at 4.6 µM·h, the AUC(0-inf) was determined as 5.94 µM·h, the maximum concentration (Cmax) came to 31.2 nM and the half-life was 105 h. Moreover, in data set [2], the Tmax is 40 h. For the same molecule, in data set [1] (setting [3]), the microsomal CLint at 1 μM was under 3.75 µL/min/mg. Besides, the half-life at 1 μM in data set [1] (setting [4]) was over 3.08 h.
As for `O=C(c1ccc(OCCN2CCCCC2)cc1)c1c(-c2ccc(O)cc2)sc2cc(O)ccc12` [Raloxifene, reference compound], in data set [1] (human, s9), the half-life at 0.2 μM was 1.56 h and the microsomal CLint at 0.2 μM was found to be 7.77 µL/min/mg.
